These results are taken from patent publication US11535630B2, “Apelin receptor (APJ) agonists and uses thereof” (Research Triangle Institute, priority 2015, dated 2022).

As a reminder, the efflux ratio is the permeability from basolateral to apical divided by that in the opposite direction, in the common usage. The term EC50 denotes the concentration needed to bring the measured effect to its halfway point.

Like-named read-outs stand apart in the source and are kept apart here.

Data set [1] in a line: Caco-2 cellular uptake / permeability assay (A-to-B, B-to-A). The class given is in vitro ADME. Particulars: human, Caco-2, pH 7.4. As to the method: 5.3. Cellular Uptake Assay
Caco-2 cells (clone C2BBe1) were obtained from American Type Culture Collection (Manassas, Va,). Cell monolayers were grown to confluence on collagen-coated, microporous, polycarbonate membranes in 12-well Costar Transwell plates. Details of the plates and their certification are shown below. The permeability assay buffer was Hanks' balanced salt solution (HBSS) containing 10 mM HEPES and 15 mM glucose at a pH of 7.4. The buffer in the receiver chamber also contained 1% bovine serum albumin. The dosing solution concentration was 5 μM for each test article in the assay buffer. Cell monolayers were dosed on the apical side (A-to-B) or basolateral side (B-to-A) and incubated at 37° C. with 5% CO2 in a humidified incubator. Samples were taken from the donor and receiver chambers at 120 minutes. Each determination was performed in duplicate. After the experiment, all assay buffers were removed from the inserts. Cell monolayers were dosed with blank 500 μM lucifer yellow on the A-to-B side and blank HBSS on the B-to-A side and incubated at 37° C. Samples were taken from the B-to-A side at 60 minutes. The flux of lucifer yellow was measured for each monolayer to ensure no damage was inflicted to the cell monolayers during the flux period. All samples were analyzed by LC-MS/MS using electrospray ionization.
Where, dCr/dt is the slope of the cumulative concentration in the receiver compartment versus time in μM s^−1;
Vr is the volume of the receiver compartment in cm^3;
Vd is the volume of the donor compartment in cm^3;
CA is the average of the nominal dosing concentration and the measured 120-minute donor concentration in μM;
CN is the nominal concentration of the dosing solution in μM;
Cr^final is the cumulative receiver concentration in μM at the end of the incubation period;
Cd^final is the concentration of the donor in μM at the end of the incubation period.
Efflux ratio (ER) is defined as Papp (B-to-A)/Papp (A-to-B).

For the next data set, the target named is T1, apelin receptor (APJ) (Homo sapiens, UniProt P35414).
T1 sequence (P35414 1-380): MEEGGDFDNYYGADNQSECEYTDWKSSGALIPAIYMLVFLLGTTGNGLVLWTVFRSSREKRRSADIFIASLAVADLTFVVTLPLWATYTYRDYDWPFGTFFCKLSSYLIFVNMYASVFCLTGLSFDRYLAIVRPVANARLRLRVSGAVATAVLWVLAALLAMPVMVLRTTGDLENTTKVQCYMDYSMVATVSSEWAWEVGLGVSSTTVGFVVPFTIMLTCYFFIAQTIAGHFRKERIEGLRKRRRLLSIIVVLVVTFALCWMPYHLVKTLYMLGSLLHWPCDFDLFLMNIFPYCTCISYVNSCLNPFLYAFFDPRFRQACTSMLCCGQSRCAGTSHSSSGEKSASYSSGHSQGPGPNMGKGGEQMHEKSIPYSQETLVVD
Briefly: In vitro apelin agonist activity (methods of Giddings et al., Apelin-13 as positive control). The format is cell-based. The source says: Characterization of the Apelin Agonist Activity of the Compounds
1:39-47, the contents of which are hereby incorporated by reference in its entirety. Using the methods described in Giddings et al. and Apelin-13 as a positive control.

The mark [2] stands for this setting: apelin agonist potency as listed in Table 3 (Cellular Uptake Results), read-out: EC50.
Setting [3] is: in vitro apelin agonist activity, methods of Giddings et al., Apelin-13 as positive control, read-out: EC50 (nM) Ave.

For `CCc1ccccc1-c1cc(C(=O)N[C@@H](CCN2CCCCC2)CC(=O)NC2CCC2)nn1C1CCCC1` [compound 363, (3S)-N-cyclobutyl-3-{[1-cyclopentyl-5-(2-ethylphenyl)-1H-pyrazol-3-yl]formamido}-5-(piperidin-1-yl)pentanamide], the efflux ratio at 120 min, 5 μM in data set [1] was 3.6. Besides, the EC50 on apelin receptor (APJ) (setting [2]) and at apelin receptor (APJ) (setting [3]) was 44 nM each time.

As to `COc1cccc(OC)c1-c1cc(C(=O)N[C@@H](CCN2CCCC(F)(F)C2)CC(=O)Nc2nccs2)nn1C1CCCC1` [compound 384, (3S)-3-{[1-cyclopentyl-5-(2,6-dimethoxyphenyl)-1H-pyrazol-3-yl]formamido}-5-(3,3-difluoropiperidin-1-yl)-N-(1,3-thiazol-2-yl)pentanamide], the efflux ratio at 120 min, 5 μM in data set [1] was determined as 1.7. The EC50 on apelin receptor (APJ) (setting [2]) and at apelin receptor (APJ) (setting [3]) was 15 nM throughout.

As for `CCc1ccccc1-c1cc(C(=O)N[C@@H](CCN2CCCC(F)(F)C2)CC(=O)Nc2nccs2)nn1C1CCCC1` [compound 410, (3S)-3-{[1-cyclopentyl-5-(2-ethylphenyl)-1H-pyrazol-3-yl]formamido}-5-(3,3-difluoropiperidin-1-yl)-N-(1,3-thiazol-2-yl)pentanamide], the efflux ratio at 120 min, 5 μM in data set [1] was found to be 1. For the same compound, the EC50 at apelin receptor (APJ) (setting [2]) and at apelin receptor (APJ) (setting [3]) was 7 nM throughout.
